Laboratory results as given in the RepoRT retention time repository.
Structures can show the parent of a compound that is named as a salt.

Assay: RP, Waters CORTECS UPLC C18, 100 × 2.1 mm, 1.6 µm, 40 °C, 0.4 mL/min, estimated dead time 0.55 min; A: water + 0.1% formic acid, pH 3; B: acetonitrile + 0.1% formic acid, pH 3; gradient (min/%B) 0/5 1.12/5 6.41/99.5 10.01/99.5
Conditions: stereoisomer not certain
Work on `CC1OC(n2cnc3c(N)ncnc32)C(O)C1O` (stereo unspecified) [5'-DEOXYADENOSINE] yielded an LC retention time of 0.931 min. With `CCOC(=O)Cc1c[nH]c2ccccc12` [ETHYL 3-INDOLEACETATE] the LC retention time was 4.49 min. With `O=C(NC(=O)c1c(F)cccc1F)Nc1ccc(OC(F)(F)C(F)OC(F)(F)F)c(Cl)c1` (stereo unspecified) [Novaluron] the LC retention time was 5.71 min. `Cc1cc(C(F)(C(F)(F)F)C(F)(F)F)ccc1NC(=O)c1cccc(I)c1C(=O)NC(C)(C)CS(C)(=O)=O` [Flubendiamide] gave an LC retention time of 5.35 min. Compound `CCCSP(=O)(OCC)SCCC` [Ethoprop] has an LC retention time of 5.02 min. `CCOC1Oc2ccc(OS(C)(=O)=O)cc2C1(C)C` (stereo unspecified) [Ethofumesate] gave an LC retention time of 5.04 min. With `NCCc1ccc(O)cc1` [TYRAMINE] the LC retention time was 0.755 min. `CCCCCCCCCC(=O)OC(CC(=O)[O-])C[N+](C)(C)C` [Decanoyl-L-carnitine] showed an LC retention time of 4.21 min. Work on `O=C1CC[C@@H](C(=O)O)N1` [L-Pyroglutamic acid] yielded an LC retention time of 0.71 min. Work on `CC(CCC(=O)NCCS(=O)(=O)O)C1CCC2C3C(O)CC4CC(O)CCC4(C)C3CC(O)C12C` (stereo unspecified) [Taurocholic acid sodium salt hydrate] yielded an LC retention time of 3.74 min. Work on `CCCCCCCCCCCCCCCC[n+]1cccc(S(=O)(=O)[O-])c1` [C16-APS] yielded an LC retention time of 6.07 min. Work on `CCOP(=S)(OCC)SCn1c(=O)oc2cc(Cl)ccc21` [Phosalone] yielded an LC retention time of 5.7 min. `Cc1cc(C)c(C2=C(OC(=O)CC(C)(C)C)C3(CCCC3)OC2=O)c(C)c1` [Spiromesifen] gave an LC retention time of 6.47 min. `Cc1ncc(CO)c(C(=O)O)c1O` [4-PYRIDOXATE] showed an LC retention time of 0.768 min. `OCCc1c[nH]c2ccccc12` [INDOLE-3-ETHANOL] showed an LC retention time of 3.05 min. Work on `O=C(O)CCc1ccccc1O` [3-(2-HYDROXYPHENYL)PROPANOATE] yielded an LC retention time of 5.17 min. With `Cc1ccc(N=c2sccn2C)c(C)c1` [Cymiazol hydrochloride] the LC retention time was 3.22 min. Work on `O=c1[nH]c2c(c(=O)n1C1CCCCC1)CCC2` [Lenacil] yielded an LC retention time of 3.96 min. Compound `N#CC(CCc1ccc(Cl)cc1)(Cn1cncn1)c1ccccc1` (stereo unspecified) [Fenbucanozole] has an LC retention time of 5.11 min. For `CCCCCCCCCCCCCC(=O)OC(CC(=O)[O-])C[N+](C)(C)C` [Myristoyl-L-carnitine], the LC retention time was 5.13 min. With `N[C@@H](Cc1ccc(O)c([N+](=O)[O-])c1)C(=O)O` [3-NITRO-L-TYROSINE] the LC retention time was 1.5 min. In the case of `COC(=O)Nc1nc2ccccc2[nH]1` [Carbendazim], the LC retention time is reported as 2.38 min. In the case of `CCOP(=O)(NC(C)C)Oc1ccc(SC)c(C)c1` (stereo unspecified) [Fenamiphos], the LC retention time is reported as 4.89 min. Compound `CCOC(=O)C(Cl)Cc1cc(-n2nc(C)n(C(F)F)c2=O)c(F)cc1Cl` (stereo unspecified) [Carfentrazone-ethyl] has an LC retention time of 5.39 min. `Nc1cc(O)cc(C(=O)O)c1` [3-AMINO-5-HYDROXYBENZOATE] gave an LC retention time of 0.722 min. `Nc1ccccc1C(=O)CC(N)C(=O)O` (stereo unspecified) [KYNURENINE] showed an LC retention time of 1.19 min. Compound `COCC(=O)N(c1c(C)cccc1C)N1CCOC1=O` [Oxadixyl] has an LC retention time of 3.8 min. With `CSC1=NC(C)(c2ccccc2)C(=O)N1Nc1ccccc1` (stereo unspecified) [Fenamidone] the LC retention time was 4.96 min. For `COC(=O)C=C(C)OP(=O)(OC)OC` [Mevinphos], the LC retention time was 3.41 min. Work on `CNC(=O)Oc1cccc2ccccc12` [Carbaryl] yielded an LC retention time of 3.14 min. Compound `CC(=O)NC(Cc1c[nH]c2ccccc12)C(=O)O` (stereo unspecified) [N-ACETYLTRYPTOPHAN] has an LC retention time of 3.14 min. Compound `O=[N+]([O-])c1cc(C(F)(F)F)c(Cl)c([N+](=O)[O-])c1Nc1ncc(C(F)(F)F)cc1Cl` [Fluazinam] has an LC retention time of 5.97 min. `CCCCCC[n+]1cccc(S(=O)(=O)[O-])c1` [C6-APS] gave an LC retention time of 2.9 min. Compound `CC(C)=CC(=O)NCC(=O)O` [3-Methylcrotonyl Glycine] has an LC retention time of 2.29 min. `CC(CCCC(C)C1CCC2C3C(O)CC4=CC(=O)CCC4(C)C3CCC12C)C(=O)O` (stereo unspecified) [7-Hydroxy-3-oxo-Cholest-4-en-26-oic Acid] showed an LC retention time of 5.53 min. `O=C(O)c1ccccn1` [PICOLINATE] gave an LC retention time of 0.719 min. `CC(C)Oc1cc(-n2nc(C(C)(C)C)oc2=O)c(Cl)cc1Cl` [Oxadiazon] showed an LC retention time of 6.14 min. Compound `CNC(=O)Oc1cc(C)c(N(C)C)c(C)c1` [Mexacarbate] has an LC retention time of 2.61 min. For `O=C(O)CNC(=O)c1ccccc1` [Hippuric acid], the LC retention time was 2.6 min. In the case of `CC(CCC(=O)NCC(=O)O)C1CCC2C3C(O)CC4CC(O)CCC4(C)C3CC(O)C12C` (stereo unspecified) [Glycocholic acid hydrate], the LC retention time is reported as 4.08 min. `CC1(O)CCOC(=O)C1` (racemic) [(±)-Mevalonolactone] showed an LC retention time of 0.963 min. For `CCNc1nc(Cl)nc(N(CC)CC)n1` [Trietazin], the LC retention time was 5.23 min. With `CCCCCCCCCCC[n+]1cccc(S(=O)(=O)[O-])c1` [C11-APS] the LC retention time was 4.59 min. Compound `CCCC[n+]1cccc(S(=O)(=O)[O-])c1` [C4-APS] has an LC retention time of 1.11 min. Work on `CCON=C(CC)C1=C(O)CC(c2c(C)cc(C)cc2C)CC1=O` (stereo unspecified) [Tralkoxidym] yielded an LC retention time of 6.22 min. In the case of `Nc1nc2c(ncn2C2CC(O)C(CO)O2)c(=O)[nH]1` (stereo unspecified) [DEOXYGUANOSINE], the LC retention time is reported as 0.751 min. `CC(C)OC(=O)C(C(=O)OC(C)C)=C1SCCS1` [Isoprothiolane] showed an LC retention time of 5.21 min. Compound `N#CCNC(=O)c1cnccc1C(F)(F)F` [Flonicamid] has an LC retention time of 2.88 min. With `Cc1cc2nc[nH]c2cc1C` [5,6 DIMETHYLBENZIMIDAZOLE] the LC retention time was 2.64 min. Work on `CC(CCC(=O)O)C1CCC2C3C(O)CC4CC(O)CCC4(C)C3CCC12C` (stereo unspecified) [Chenodeoxycholic acid] yielded an LC retention time of 5.12 min. Work on `CCCCCCC[n+]1cccc(S(=O)(=O)[O-])c1` [C7-APS] yielded an LC retention time of 3.32 min. In the case of `CC(=O)NCCCC(=O)O` [4-ACETAMIDOBUTANOATE], the LC retention time is reported as 0.817 min. In the case of `COC(=O)C(C)N(C(=O)c1ccco1)c1c(C)cccc1C` (stereo unspecified) [Furalaxyl], the LC retention time is reported as 4.79 min. In the case of `CC(C)(C)C(O)C(Oc1ccc(-c2ccccc2)cc1)n1cncn1` (stereo unspecified) [Bitertanol], the LC retention time is reported as 5.14 min. Compound `CCCCCCCCCCCCCC(O)CC(=O)OC(CC(=O)[O-])C[N+](C)(C)C` [[(3R)-3-Hydroxyhexadecanoyl]-L-carnitine] has an LC retention time of 5.1 min. `CCOC(=O)NCCOc1ccc(Oc2ccccc2)cc1` [Fenoxycarb] gave an LC retention time of 5.19 min. Compound `COCCCNc1nc(NC(C)C)nc(SC)n1` [Methoprotryne] has an LC retention time of 3.87 min. `CC(C)CCCC(C)C1CCC2C3C(=O)C=C4CC(O)CCC4(C)C3CCC12C` (stereo not drawn) [5-Cholesten-3β-ol-7-one] showed an LC retention time of 7.56 min. In the case of `O=C(Nc1ccccc1)N(Cc1ccc(Cl)cc1)C1CCCC1` [Pencycuron], the LC retention time is reported as 5.69 min. For `O=C(O)c1ccccc1` [BENZOATE], the LC retention time was 2.13 min. `CCCCCCCCCCCCCCC[n+]1cccc(S(=O)(=O)[O-])c1` [C15-APS] showed an LC retention time of 5.78 min. In the case of `Nc1nc2nc[nH]c2c(=O)[nH]1` [GUANINE], the LC retention time is reported as 0.76 min. In the case of `O=C/C=C/c1ccccc1` [TRANS-CINNAMALDEHYDE], the LC retention time is reported as 5 min. Compound `Cn1c(=O)c2[nH]cnc2n(C)c1=O` [THEOPHYLLINE] has an LC retention time of 2.15 min. `CC1(C)CON(Cc2ccccc2Cl)C1=O` [Clomazone] gave an LC retention time of 4.64 min. `O=C(NC(=O)c1c(F)cccc1F)Nc1cc(Cl)c(OC(F)(F)C(F)C(F)(F)F)cc1Cl` (stereo unspecified) [Lufenuron] showed an LC retention time of 5.91 min.
